From the SangsterLogP compilation

Assay: method code G-GLC, from Herzke, D.; Rotard, W. (1999). Physical-chemical properties of polyfluorinated dibenzodioxins and dibenzofurans. Organohalogen Compounds, 41, 171-174.

Compound | logP
Fc1ccc2c(c1)Oc1c(F)c(F)c(F)c(F)c1O2 | 3.6
Clc1ccc2oc3ccccc3c2c1Cl | 5.6
Fc1cc2c(cc1F)Oc1cc(F)c(F)cc1O2 | 3.5
Clc1ccc2c(c1)Oc1ccc(Cl)cc1O2 | 5.7
Clc1cc2c(oc3ccccc32)c(Cl)c1Cl | 6.4
Fc1cc2oc3c(F)c(F)c(F)c(F)c3c2cc1F | 4
Clc1c(Cl)c(Cl)c2c(c1Cl)Oc1c(Cl)c(Cl)c(Cl)c(Cl)c1O2 | 8.2

Continued, values first:

logP | Compound
3.4 | Fc1cc2c(oc3ccccc32)c(F)c1F
3 | Fc1c(F)c(F)c2c(c1F)Oc1c(F)c(F)c(F)c(F)c1O2
3.8 | Fc1cc2c(cc1F)Oc1c(F)c(F)c(F)c(F)c1O2
4.4 | Fc1ccc2oc3c(F)c(F)c(F)c(F)c3c2c1F
3.1 | Fc1cc(F)c2c(c1F)Oc1c(F)c(F)cc(F)c1O2
3.3 | Fc1ccc2c(c1)Oc1ccc(F)cc1O2
3.1 | Fc1cc2c(c(F)c1F)Oc1c(F)cc(F)c(F)c1O2
